From patent US20260062426A1, “CYCLIN DEPENDENT KINASE DEGRADERS AND METHODS OF USE THEREOF” (Differentiated Therapeutics Inc, priority 2023, published 2026)

Columns and labels:
Assay type in all cases: cell-based
[1] = biological target: T1, CDK2 (Homo sapiens, UniProt P24941); experiment: CDK2 HIBIT PQ (protein quantification), degradation; details: for CDK2 HIBIT PQ Max (%): Max = Maximum; for DC50: PQ = Protein Quantification
T1 construct: host or cells: HEK293
Outline: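 HEK293 cells carrying HiBiT-tagged CDK2 were grown in DMEM with 10% FBS and seeded in 384-well plates at 1.6×10^5 cells/well in 50 uL, then incubated overnight at 37° C and 5% CO2. After 6 hours of compound treatment, 20 μL of HiBiT reagent (Nano-Glo HiBiT lytic buffer, lytic substrate, LgBiT protein) was added and plates were shaken for 20 minutes at room temperature before an EnVision reading. High control was 0.1% DMSO and low control was medium only. Maximal degradation and DC50 were derived from these readings.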

[2] = biological target: T2, CDK9 (Homo sapiens, UniProt P50750); experiment: CDK9 HIBIT PQ (protein quantification), degradation; details: for Dmax: Max = Maximum; for DC50: PQ = Protein Quantification
T2 construct: host or cells: HEK293
T2 sequence (P50750 whole entry): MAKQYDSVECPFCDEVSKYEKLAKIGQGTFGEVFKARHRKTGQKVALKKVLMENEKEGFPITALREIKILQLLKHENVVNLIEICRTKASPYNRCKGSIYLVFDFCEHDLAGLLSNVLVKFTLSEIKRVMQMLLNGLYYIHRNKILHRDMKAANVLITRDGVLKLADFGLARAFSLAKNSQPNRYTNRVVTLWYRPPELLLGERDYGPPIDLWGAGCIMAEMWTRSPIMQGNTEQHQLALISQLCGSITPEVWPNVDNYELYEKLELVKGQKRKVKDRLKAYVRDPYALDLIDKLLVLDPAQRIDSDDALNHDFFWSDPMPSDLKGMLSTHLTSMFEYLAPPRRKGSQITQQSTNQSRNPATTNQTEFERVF
Outline: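 In 384-well plates, HEK293 cells with HiBiT-tagged CDK9, grown in DMEM with 10% FBS, were seeded at 1.6×10^5 cells/well in 50 uL and kept overnight at 37° C and 5% CO2. After compound treatment, a HiBiT assay quantified CDK9 protein against a high control of 0.1% DMSO-treated cells and a low control of culture medium only. Maximal degradation, Dmax and DC50 were derived from the resulting signal.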

[3] = biological target: T3, CCNE1 (Homo sapiens, UniProt P24864+P24941); experiment: CCNE1 HIBIT PQ (protein quantification), degradation; details: for CCNE1 HIBIT PQ Max (%): Max = Maximum; for DC50: PQ = Protein Quantification
T3 construct: host or cells: HEK293
Outline: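 HEK293 cells with HiBiT-tagged CCNE1 were cultured in EMEM containing 10% FBS, plated at 1.6×10⁵ cells/well in 50 uL in 384-well plates and left overnight at 37° C with 5% CO₂. After 6 hours of compound exposure, a HiBiT assay measured CCNE1 protein, with 0.1% DMSO-treated cells as the high control and medium alone as the low control. DC50 and maximal degradation came from these readings.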

| Structure (SMILES) | CDK2 HIBIT PQ Max (%) [1] | DC50 [1] | Dmax [2] | DC50 [2] | CCNE1 HIBIT PQ Max (%) [3] | DC50 [3] |
| --- | --- | --- | --- | --- | --- | --- |
| CC(C)Oc1c(-c2cn[nH]c2)ncn2nc(N[C@H]3CCN(S(=O)(=O)c4cccc(CN5CCN(c6ccc7c(N8CCC(=O)NC8=O)nn(C)c7c6)CC5C)c4)C[C@H]3C)nc12 (stereo partly shown) [Compound 51] | 98% | 2.4 nM | 100% | 20.2 nM | 92% | 9.29 nM |
| CC(C)Oc1c(-c2cn[nH]c2)ncn2nc(Nc3ccc(S(=O)(=O)N4CCCC(CN5CCC(c6ccc7c(N8CCC(=O)NC8=O)nn(C)c7c6)CC5)C4)cc3F)nc12 (single isomer, unassigned) [Compound 94] | 92% | 0.3 nM | 88% | 5.2 nM | 89% | 1.55 nM |
| CC(C)Oc1c(-c2cn[nH]c2)ncn2nc(Nc3ccc(S(=O)(=O)c4cccc(CN5CC6CC5CN6c5ccc6c(N7CCC(=O)NC7=O)nn(C)c6c5)c4)cc3F)nc12 (stereo not shown) [Compound 48] | 79% | 3.1 nM | 2% |  | 21% |  |
| CC(C)Oc1c(-c2cn[nH]c2)ncn2nc(Nc3ccc(S(=O)(=O)N(C)CCCN4CCC(c5ccc6c(N7CCC(=O)NC7=O)nn(C)c6c5)CC4)cc3F)nc12 [Compound 15] | 95% | 0.35 nM | 99% | 1.37 nM | 93% | 0.72 nM |
| CC(C)Oc1c(-c2cn[nH]c2)ncn2nc(Nc3ccc(S(=O)(=O)N(C)CCCN4CCN(c5ccc6c(c5)n(C)c(=O)n6C5CCC(=O)NC5=O)C[C@@H]4C)cc3F)nc12 (stereo partly shown) [Compound 62] | 91% | 0.1 nM | 75% | 1.22 nM | 65% | 0.92 nM |
| CC(C)Oc1c(-c2cn[nH]c2)ncn2nc(Nc3ccc(S(=O)(=O)c4ccc(CN5CCC(c6ccc7c(c6)n(C)c(=O)n7[C@H]6CCC(=O)NC6=O)CC5)o4)cc3F)nc12 [Compound 73] | 79% | 0.8 nM | 31% |  | 27% |  |
| CC(C)Oc1c(-c2cn[nH]c2)ncn2nc(Nc3ccc(S(=O)(=O)c4cccc(CN5CCN(c6cc7c(cc6F)C(=O)N(C6CCC(=O)NC6=O)C7)CC5)c4)cc3F)nc12 (racemic) [Compound 11] | 90% | 2.25 nM | 50% |  | 65% | 14.4 nM |
| CC(C)Oc1c(-c2cn[nH]c2)ncn2nc(Nc3ccc(S(=O)(=O)N4CC5(CCCN(CCOc6cccc7c6n(C)c(=O)n7C6CCC(=O)NC6=O)C5)C4)cc3F)nc12 (stereo not shown) [Compound 27] | 66% | 6.3 nM | 6% |  | 10% |  |
| CC(C)Oc1c(-c2cn[nH]c2)ncn2nc(Nc3ccc(S(=O)(=O)N4CCC[C@@H](CN5CC[C@H](c6ccc7c(N8CCC(=O)NC8=O)nn(C)c7c6)CC5(C)C)C4)cc3F)nc12 (single isomer, unassigned) [Compound 103] | 90% | 1 nM | 92% | 4.01 nM | 83% | 1.96 nM |
| CC(C)Oc1c(-c2cn[nH]c2)ncn2nc(Nc3ccc(S(=O)(=O)N4CCC5(CCN(CC6CN(c7cccc8c7n(C)c(=O)n8C7CCC(=O)NC7=O)C6)C5)C4)cc3F)nc12 (stereo not shown) [Compound 75] | 85% | 4.7 nM | 55% | 92.5 nM | 28% |  |
| CC(C)Oc1c(-c2cn[nH]c2)ncn2nc(Nc3ccc(S(=O)(=O)N4CCC(CN5CCC(c6ccc7c(c6)n(C)c(=O)n7C6CCC(=O)NC6=O)CC5)C4)cc3F)nc12 (stereo not shown) [Compound 71] | 78% |  | 29% |  | 35% |  |
